Experimental data reported in patent US11351178B2, “Selective HDAC6 inhibitors” (ITALFARMACO S.P.A., priority 2017, dated 2022).

How the values were obtained:
[1] = Stability in human plasma; assay type: in vitro ADME; conditions: after 4 hours, 37° C.
Outline: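 Compounds incubated at 37° C in rat or human plasma at 50 μM (UV/HPLC) or 1 or 2 μM (LC-MS/MS) for 0–4 h. Reaction stopped with acidified acetonitrile on ice; percent remaining versus initial amount and plasma half-life calculated.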

HDAC5 = biological target: T1, HDAC5 (Homo sapiens, UniProt Q9UQL6); test: Enzymatic test HDAC5; assay type: biochemical; conditions: Table 3
T1 construct: purchased BPS 50005
T1 sequence (Q9UQL6 656-1122 limits assumed): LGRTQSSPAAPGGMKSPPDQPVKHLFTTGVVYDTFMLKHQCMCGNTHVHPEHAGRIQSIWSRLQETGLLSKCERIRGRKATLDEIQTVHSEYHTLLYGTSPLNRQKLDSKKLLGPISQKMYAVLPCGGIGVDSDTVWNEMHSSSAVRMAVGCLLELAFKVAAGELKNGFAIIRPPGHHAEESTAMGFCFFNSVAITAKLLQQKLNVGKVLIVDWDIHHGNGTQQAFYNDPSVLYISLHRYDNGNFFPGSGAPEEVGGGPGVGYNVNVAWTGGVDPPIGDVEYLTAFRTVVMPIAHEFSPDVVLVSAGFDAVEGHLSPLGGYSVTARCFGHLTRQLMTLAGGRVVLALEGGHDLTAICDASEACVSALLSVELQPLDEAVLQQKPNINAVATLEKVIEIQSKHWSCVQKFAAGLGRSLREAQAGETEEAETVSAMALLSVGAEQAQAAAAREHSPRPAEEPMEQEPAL
Experimental: (§1) After a period of incubation at 30° C. (incubation times vary for different isoforms and are shown in table 1) 25 μL of solution containing the substrate were added. As substrate, FLUOR DE LYS® deacetylase substrate (Enzo Life Sciences, cat #BML-K1104, FdL), FLUOR DE LYS®-Green substrate (Enzo Life Sciences, cat #BML-K1572 FdL_G) and trifluoroacetyl-L-lysine (Tfal)-2× concentrated solution in 25 mM Tris-HCl, pH 8, 130 mM NaCl 0.05% Tween-20 10% glycerol) were used. Following a reaction period at 30° C.

HDAC10 = biological target: T2, HDAC10 (Homo sapiens, UniProt Q969S8); test: Enzymatic test HDAC10; assay type: biochemical; conditions: Table 3
T2 construct: purchased BPS 50010
T2 sequence (Q969S8 1-669): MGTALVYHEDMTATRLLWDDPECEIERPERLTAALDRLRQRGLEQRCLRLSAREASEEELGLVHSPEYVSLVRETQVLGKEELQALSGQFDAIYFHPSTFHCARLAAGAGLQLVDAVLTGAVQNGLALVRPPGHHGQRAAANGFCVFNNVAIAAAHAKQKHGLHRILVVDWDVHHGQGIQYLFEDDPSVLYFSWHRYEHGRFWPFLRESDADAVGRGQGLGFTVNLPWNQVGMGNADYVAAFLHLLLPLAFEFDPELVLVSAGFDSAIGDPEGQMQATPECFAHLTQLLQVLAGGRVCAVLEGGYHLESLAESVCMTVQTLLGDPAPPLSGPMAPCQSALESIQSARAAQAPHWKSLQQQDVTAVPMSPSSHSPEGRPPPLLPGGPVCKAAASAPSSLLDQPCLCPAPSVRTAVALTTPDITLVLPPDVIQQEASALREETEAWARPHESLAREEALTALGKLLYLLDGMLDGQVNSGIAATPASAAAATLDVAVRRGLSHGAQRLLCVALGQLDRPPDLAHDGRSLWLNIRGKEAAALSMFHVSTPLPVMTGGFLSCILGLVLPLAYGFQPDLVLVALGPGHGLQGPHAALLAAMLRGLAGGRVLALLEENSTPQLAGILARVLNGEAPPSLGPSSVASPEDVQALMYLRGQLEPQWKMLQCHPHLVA

HDAC11 = biological target: T3, HDAC11 (Homo sapiens, UniProt Q96DB2); test: Enzymatic test HDAC11; assay type: biochemical; conditions: Table 3
T3 construct: purchased BML SE560
T3 sequence (Q96DB2 1-347): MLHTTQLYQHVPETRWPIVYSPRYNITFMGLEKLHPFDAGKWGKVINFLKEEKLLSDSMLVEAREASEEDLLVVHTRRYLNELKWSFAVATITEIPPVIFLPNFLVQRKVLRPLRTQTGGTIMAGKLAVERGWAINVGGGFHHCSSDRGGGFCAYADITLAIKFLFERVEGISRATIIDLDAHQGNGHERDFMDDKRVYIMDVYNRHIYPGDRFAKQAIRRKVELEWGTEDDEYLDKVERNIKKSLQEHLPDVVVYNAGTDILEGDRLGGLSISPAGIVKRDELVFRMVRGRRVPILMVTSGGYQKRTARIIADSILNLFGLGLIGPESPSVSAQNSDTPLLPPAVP
Experimental: as §1

HDAC1 = biological target: T4, HDAC1 (Homo sapiens, UniProt Q13547); test: Enzymatic test HDAC1; assay type: biochemical; conditions: Table 3
T4 construct: purchased BPS 50051
T4 sequence (Q13547 whole entry): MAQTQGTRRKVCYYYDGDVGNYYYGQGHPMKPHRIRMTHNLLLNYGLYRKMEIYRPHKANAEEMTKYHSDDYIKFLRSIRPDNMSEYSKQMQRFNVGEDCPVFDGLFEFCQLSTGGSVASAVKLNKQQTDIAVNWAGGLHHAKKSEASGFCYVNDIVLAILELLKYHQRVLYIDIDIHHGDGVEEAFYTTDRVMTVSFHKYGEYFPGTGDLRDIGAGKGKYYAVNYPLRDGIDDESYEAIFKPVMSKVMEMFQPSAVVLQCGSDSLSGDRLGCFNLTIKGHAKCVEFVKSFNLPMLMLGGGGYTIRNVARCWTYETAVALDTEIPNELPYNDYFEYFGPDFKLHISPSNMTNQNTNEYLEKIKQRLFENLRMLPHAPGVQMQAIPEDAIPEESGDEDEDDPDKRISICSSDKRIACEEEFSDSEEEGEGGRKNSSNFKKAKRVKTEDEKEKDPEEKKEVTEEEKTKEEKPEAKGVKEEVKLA

HDAC2 = biological target: T5, HDAC2 (Homo sapiens, UniProt Q92769); test: Enzymatic test HDAC2; assay type: biochemical; conditions: Table 3
T5 construct: purchased BPS 50002
T5 sequence (Q92769 whole entry): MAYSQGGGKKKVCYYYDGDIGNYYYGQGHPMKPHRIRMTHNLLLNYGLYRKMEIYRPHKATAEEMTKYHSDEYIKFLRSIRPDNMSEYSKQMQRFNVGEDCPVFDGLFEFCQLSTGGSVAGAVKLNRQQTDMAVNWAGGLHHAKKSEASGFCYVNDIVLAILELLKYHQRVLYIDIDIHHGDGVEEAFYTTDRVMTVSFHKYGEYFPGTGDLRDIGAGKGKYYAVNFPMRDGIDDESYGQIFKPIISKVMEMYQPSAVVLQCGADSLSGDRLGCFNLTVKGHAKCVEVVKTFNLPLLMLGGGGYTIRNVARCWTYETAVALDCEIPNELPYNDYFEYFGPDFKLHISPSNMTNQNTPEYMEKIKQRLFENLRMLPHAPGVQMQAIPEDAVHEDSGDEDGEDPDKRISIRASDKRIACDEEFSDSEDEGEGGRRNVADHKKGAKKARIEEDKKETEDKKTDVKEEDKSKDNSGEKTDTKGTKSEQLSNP

HDAC7 = biological target: T6, HDAC7 (Homo sapiens, UniProt Q8WUI4); test: Enzymatic test HDAC7; assay type: biochemical; conditions: Table 3
T6 construct: purchased BPS 50007
T6 sequence (Q8WUI4 518-952 limits assumed): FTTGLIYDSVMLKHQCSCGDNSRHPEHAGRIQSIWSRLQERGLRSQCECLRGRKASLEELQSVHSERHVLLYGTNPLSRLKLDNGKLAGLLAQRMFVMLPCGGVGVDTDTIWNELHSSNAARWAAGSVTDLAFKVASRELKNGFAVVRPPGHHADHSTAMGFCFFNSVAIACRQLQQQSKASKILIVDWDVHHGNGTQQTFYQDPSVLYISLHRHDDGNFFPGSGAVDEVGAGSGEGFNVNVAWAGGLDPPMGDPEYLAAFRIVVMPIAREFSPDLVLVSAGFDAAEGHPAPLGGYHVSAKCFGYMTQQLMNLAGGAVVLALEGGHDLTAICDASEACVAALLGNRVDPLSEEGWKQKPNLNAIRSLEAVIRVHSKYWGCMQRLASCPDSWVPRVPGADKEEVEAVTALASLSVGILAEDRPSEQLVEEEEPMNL
Experimental: as §1

O=C(NO)c1ccc(Cn2nnnc2-c2cccs2)cc1 [comp. 8, N-hydroxy-4-((5-(thiophen-2-yl)-1H-tetrazol-1-yl)methyl)benzamide]
residual percentage in human plasma [1]: 91%

O=C(NO)c1cc(F)c(Cn2nnnc2-c2cccs2)c(F)c1 [comp. 15, 3,5-difluoro-N-hydroxy-4-((5-(thiophen-2-yl)-1H-tetrazol-1-yl)methyl)benzamide]
IC50 (HDAC5): 0.706 µM
residual percentage in human plasma [1]: 91%
IC50 (HDAC10): 8.63 µM
IC50 (HDAC11): 4.59 µM
IC50 (HDAC1): 7.09 µM
IC50 (HDAC2): 8.8 µM

O=C(NO)c1ccc(Cn2nnc(-c3ccc(C(F)(F)F)cc3)n2)cc1 [comp. 23, 4-[[5-[4-(trifluoromethyl)phenyl]tetrazol-2-yl]methyl]benzenecarbohydroxamic acid]
IC50 (HDAC5): 4.81 µM
IC50 (HDAC10): 1.1 µM
IC50 (HDAC7): 6.67 µM
IC50 (HDAC11): 0.486 µM
IC50 (HDAC1): 0.616 µM
IC50 (HDAC2): 2.03 µM

Nn1c(Sc2ccc(C(=O)NO)cc2)nnc1-c1ccc(OC(F)F)cc1 [comp. 28, 4-[[4-amino-5-[4-(difluoromethoxy)phenyl]-1,2,4-triazol-3-yl]sulfanyl]benzenecarbohydroxamic acid]
IC50 (HDAC5): 1.17 µM
IC50 (HDAC10): 0.636 µM
IC50 (HDAC7): 1.03 µM
IC50 (HDAC11): 0.568 µM
IC50 (HDAC1): 0.426 µM
IC50 (HDAC2): 1.57 µM

O=C(NO)c1ccc(Cn2nnc(-c3ccccc3F)n2)cc1 [comp. 33, 4-[[5-(2-fluorophenyl)tetrazol-2-yl]methyl]benzenecarbohydroxamic acid]
IC50 (HDAC5): 2.36 µM
IC50 (HDAC10): 0.441 µM
IC50 (HDAC7): 0.608 µM
IC50 (HDAC11): 0.225 µM
IC50 (HDAC1): 0.232 µM
IC50 (HDAC2): 0.81 µM

O=C(NO)c1ccc(Cn2nnc(-c3cccs3)n2)cc1 [comp. 50, 4-[[5-(2-thienyl)tetrazol-2-yl]methyl]benzenecarbohydroxamic acid]
IC50 (HDAC5): 1.95 µM
IC50 (HDAC10): 0.398 µM
IC50 (HDAC7): 0.611 µM
IC50 (HDAC11): 0.245 µM
IC50 (HDAC1): 0.254 µM
IC50 (HDAC2): 0.958 µM

O=C(NO)c1ccc(Cc2nnc(-c3ccc(F)cc3F)o2)cc1 [comp. 58, 4-((5-(2,4-difluorophenyl)-1,3,4-oxadiazol-2-yl)methyl)-N-hydroxybenzamide]
IC50 (HDAC5): 3.69 µM
IC50 (HDAC10): 0.591 µM
IC50 (HDAC7): 1.51 µM
IC50 (HDAC11): 0.282 µM
IC50 (HDAC1): 0.364 µM
IC50 (HDAC2): 1.75 µM

CN(C)S(=O)(=O)c1cccc(-c2nnn(Cc3ccc(C(=O)NO)cc3)n2)c1 [comp. 59, 4-[[5-[3-(dimethylsulfamoyl)phenyl]tetrazol-2-yl]methyl]benzenecarbohydroxamic acid]
IC50 (HDAC5): 4.12 µM
IC50 (HDAC10): 0.542 µM
IC50 (HDAC7): 0.82 µM
IC50 (HDAC11): 0.515 µM
IC50 (HDAC1): 0.353 µM
IC50 (HDAC2): 2.32 µM

CCN(CC)S(=O)(=O)c1cccc(-c2nnc(Sc3ccc(C(=O)NO)cc3)n2N)c1 [comp. 61, 4-[[4-amino-5-[3-(diethylsulfamoyl)phenyl]-1,2,4-triazol-3-yl]sulfanyl]benzenecarbohydroxamic acid]
IC50 (HDAC5): 2.51 µM
IC50 (HDAC10): 0.991 µM
IC50 (HDAC7): 0.529 µM
IC50 (HDAC11): 0.904 µM
IC50 (HDAC1): 0.495 µM
IC50 (HDAC2): 6.91 µM

O=C(NO)c1cc(F)c(Cn2nnc(-c3cccs3)n2)c(F)c1 [comp. 65, 3,5-difluoro-4-[[5-(2-thienyl)tetrazol-2-yl]methyl]benzenecarbohydroxamic acid]
IC50 (HDAC5): 1.19 µM
IC50 (HDAC10): 1.45 µM
IC50 (HDAC7): 1.08 µM
IC50 (HDAC11): 0.975 µM
IC50 (HDAC1): 2.41 µM
IC50 (HDAC2): 17.7 µM

CCN(CC)S(=O)(=O)c1cccc(-c2nnc(Sc3ccc(C(=O)NO)cc3)n2C)c1 [comp. 66, 4-[[5-[3-(diethylsulfamoyl)phenyl]-4-methyl-1,2,4-triazol-3-yl]sulfanyl]benzenecarbohydroxamic acid]
IC50 (HDAC5): 0.325 µM
IC50 (HDAC10): 1.34 µM
IC50 (HDAC7): 0.214 µM
IC50 (HDAC11): 1.01 µM
IC50 (HDAC1): 0.747 µM
IC50 (HDAC2): 1.03 µM

CN(C)c1cccc(-c2nnc(Sc3ccc(C(=O)NO)cc3)n2C)c1 [comp. 77, 4-[[5-[3-(dimethylamino)phenyl]-4-methyl-1,2,4-triazol-3-yl]sulfanyl]benzenecarbohydroxamic acid]
IC50 (HDAC5): 4.47 µM
IC50 (HDAC10): 2.81 µM
IC50 (HDAC7): 1.36 µM
IC50 (HDAC11): 1.44 µM
IC50 (HDAC1): 0.581 µM
IC50 (HDAC2): 5.23 µM

O=C(NO)c1cc(F)c(Cn2nnc(-c3scc4c3OCCO4)n2)c(F)c1 [comp. 79, 4-[[5-(2,3-dihydrothieno[3,4-b][1,4]dioxin-5-yl)tetrazol-2-yl]methyl]-3,5-difluoro-benzenecarbohydroxamic acid]
IC50 (HDAC5): 0.687 µM
IC50 (HDAC10): 1.91 µM
IC50 (HDAC7): 1.31 µM
IC50 (HDAC11): 0.659 µM
IC50 (HDAC1): 2.32 µM
IC50 (HDAC2): 6.75 µM

CN(C)c1cccc(-c2nnc(Sc3c(F)cc(C(=O)NO)cc3F)n2C)c1 [comp. 80, 4-[[5-[3-(dimethylamino)phenyl]-4-methyl-1,2,4-triazol-3-yl]sulfanyl]-3,5-difluoro-benzenecarbohydroxamic acid]
IC50 (HDAC5): 1.28 µM
IC50 (HDAC10): 5.58 µM
IC50 (HDAC7): 0.764 µM
IC50 (HDAC11): 2.82 µM
IC50 (HDAC1): 4.64 µM
IC50 (HDAC2): 13.8 µM

O=C(NO)c1cc(F)c(Cn2nnnc2-c2ncccn2)c(F)c1 [comp. 125, 3,5-difluoro-4-[(5-pyrimidin-2-yltetrazol-1-yl)methyl]benzenecarbohydroxamic acid]
residual percentage in human plasma [1]: 77%

Cn1c(Sc2c(F)cc(C(=O)NO)cc2F)nnc1-c1cccc(CN2CCCCCC2)c1 [comp. 167, 4-[[5-[3-(azepan-1-ylmethyl)phenyl]-4-methyl-1,2,4-triazol-3-yl]sulfanyl]-3,5-difluoro-benzenecarbohydroxamic acid]
residual percentage in human plasma [1]: 91%

Nc1ccc(-c2nnn(Cc3c(F)cc(C(=O)NO)cc3F)n2)cc1 [comp. 171, 4-[[5-(4-aminophenyl)tetrazol-2-yl]methyl]-3,5-difluoro-benzenecarbohydroxamic acid]
residual percentage in human plasma [1]: 88%

Cn1c(Sc2c(F)cc(C(=O)NO)cc2F)nnc1-c1cccnn1 [comp. 179, 3,5-difluoro-4-[(4-methyl-5-pyridazin-3-yl-1,2,4-triazol-3-yl)sulfanyl]benzenecarbohydroxamic acid]
residual percentage in human plasma [1]: 100%

Cn1c(Sc2c(F)cc(C(=O)NO)cc2F)nnc1-c1ncccc1F [comp. 180, 3,5-difluoro-4-[[5-(3-fluoro-2-pyridyl)-4-methyl-1,2,4-triazol-3-yl]sulfanyl]benzenecarbohydroxamic acid]
residual percentage in human plasma [1]: 97%

O=C(NO)c1cc(F)c(Cc2nnc(-c3ccncc3)s2)c(F)c1 [compound 195, 3,5-difluoro-4-[[5-(4-pyridyl)-1,3,4-thiadiazol-2-yl]methyl]benzenecarbohydroxamic acid]
residual percentage in human plasma [1]: 93%
